These are literature values, as cited in patent US10195206B2, “Two-component pharmaceutical composition for the treatment of pain” (BRIDGE THERAPEUTICS, INC., priority 2005, dated 2019).

For data set [1] the following is noted: in vivo.
The conditions of data set [2]: in vivo. The source holds these as a separate data set.

In the case of `CO[C@]12CCC3(C[C@@H]1[C@](C)(O)C(C)(C)C)[C@H]1Cc4ccc(O)c5c4[C@@]3(CCN1CC1CC1)[C@H]2O5.Cl` [Buprenorphine, 17-(cyclopropylmethyl)-α-(1,1-dimethylethyl)-4,5-epoxy-18,19-dihydro-3-hydroxy-6-methoxy-α-methyl-6,14-ethenomorphian-7-methanol], the solubility in water result is “limited solubility”. In addition, the half-life entry in data set [1] is “approximately 36 hours”. Also, in data set [2], the “oral and/or gastrointestinal bioavailability” value was “poor”.

For the molecule `CN1C(C(=O)Nc2ccccn2)=C(O)c2ccccc2S1(=O)=O` [Piroxicam, 4-hydroxyl-2-methyl-N-2-pyridinal-2H-1,2-benzothiazine-3-carboximide 1,1-dioxide], the solubility in water entry is on record as “sparingly soluble”. In addition, the half-life entry in data set [1] was “approximately 50 hours”.
